Source: PubChem BioAssay (NCI)
“And” between values parts separate entries of the source, which are not always exact repeats. Equal values may be shown once.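 Where inhibition never reached the appropriate level, the endpoint shown equals the highest concentration tested. Otherwise, values were interpolated linearly from a five-concentration, 48-hour dose response in 96-well plates. The concentration for 50% growth inhibition is given as GI50. TGI is the concentration that stops growth completely.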

Columns and labels:
Assay in all cases: DTP human tumour cell line panel, 48 h
[1] = system: OVCAR-8 ovarian
[2] = system: RXF 393 renal
[3] = system: PC-3 prostate
[4] = system: HS 578T breast
[5] = system: SF-268 CNS
[6] = system: SF-539 CNS
[7] = system: NCI/ADR-RES ovarian
[8] = system: U251 CNS
[9] = system: CCRF-CEM leukemia
[10] = system: A549 NSCLC
[11] = system: HOP-92 NSCLC
[12] = system: HL-60(TB) leukemia
[13] = system: SW-620 colon
[14] = system: IGROV1 ovarian
[15] = system: T-47D breast
[16] = system: SR leukemia
[17] = system: MALME-3M melanoma
[18] = system: LOX IMVI melanoma
[19] = system: UACC-257 melanoma
[20] = system: MDA-MB-435
[21] = system: UACC-62 melanoma
[22] = system: 786-0 renal
[23] = system: HCT-116 colon
[24] = system: SNB-75 CNS
[25] = system: SK-OV-3 ovarian
[26] = system: OVCAR-3 ovarian
[27] = system: SK-MEL-5 melanoma
[28] = system: MDA-N
[29] = system: KM12 colon
[30] = system: SF-295 CNS
[31] = system: MCF7 breast
[32] = system: SNB-19 CNS
[33] = system: SK-MEL-28 melanoma
[34] = system: HT29 colon
[35] = system: COLO 205 colon
[36] = system: A498 renal
[37] = system: NCI-H460 lung
[38] = system: EKVX NSCLC
[39] = system: HCC-2998 colon
[40] = system: NCI-H23 lung
[41] = system: RPMI-8226 leukemia
[42] = system: SN12C renal
[43] = system: MOLT-4 leukemia
[44] = system: MDA-MB-231 breast
[45] = system: M14 melanoma
[46] = system: BT-549 breast
[47] = system: TK-10 renal
[48] = system: UO-31 renal
[49] = system: CAKI-1 renal
[50] = system: K-562 leukemia
[51] = system: NCI-H522 lung
[52] = system: HOP-62 NSCLC
[53] = system: HCT-15 colon
[54] = system: ACHN renal
[55] = system: DU-145 prostate
[56] = system: OVCAR-5 ovarian
[57] = system: NCI-H226 lung
[58] = system: OVCAR-4 ovarian
[59] = system: SK-MEL-2 melanoma

For `Cc1[nH]c2ncn(Nc3ccccc3)c(=N)c2c1Cc1ccccc1`, which TGI [1] is on record?
Its TGI is greater than 100 µM.

What about the TGI [2] of the same molecule?
The TGI was greater than 91.6 µM.

What about the TGI [3] of the same molecule?
Its TGI is greater than 100 µM.

And the TGI [4]?
Its TGI is greater than 100 µM.

And the TGI [5]?
The TGI was greater than 100 µM.

And the TGI [6]?
The TGI was greater than 100 µM.

And the TGI [7]?
The TGI was greater than 100 µM.

What about the TGI [8] of the same molecule?
Its TGI is greater than 100 µM.

And the TGI [9]?
The TGI was greater than 100 µM.

What about the TGI [10] of the same molecule?
Its TGI is greater than 100 µM.

What about the TGI [11] of the same molecule?
Its TGI is greater than 100 µM.

And the TGI [12]?
The TGI was greater than 100 µM.

What about the TGI [13] of the same molecule?
The TGI was greater than 100 µM.

What about the TGI [14] of the same molecule?
Its TGI is 98.4 µM.

What about the TGI [15] of the same molecule?
The TGI was greater than 86.9 µM.

And the TGI [16]?
The TGI was greater than 100 µM.

What about the TGI [17] of the same molecule?
The TGI was greater than 100 µM.

And the TGI [18]?
Its TGI is greater than 100 µM.

And the TGI [19]?
The TGI was greater than 100 µM.

And the TGI [20]?
The TGI was greater than 100 µM.

And the TGI [21]?
Its TGI is greater than 100 µM.

And the TGI [22]?
Its TGI is greater than 100 µM.

What about the TGI [23] of the same molecule?
The TGI was greater than 100 µM.

And the TGI [24]?
The TGI was greater than 100 µM.

And the TGI [25]?
The TGI was greater than 100 µM.

What about the TGI [26] of the same molecule?
Its TGI is greater than 100 µM.

What about the TGI [27] of the same molecule?
Its TGI is greater than 100 µM.

What about the TGI [28] of the same molecule?
The TGI was greater than 100 µM.

What about the TGI [29] of the same molecule?
The TGI was greater than 56.8 µM.

What about the TGI [30] of the same molecule?
The TGI was greater than 100 µM.

What about the TGI [31] of the same molecule?
Its TGI is greater than 100 µM.

And the TGI [32]?
The TGI was greater than 100 µM.

What about the TGI [33] of the same molecule?
The TGI was greater than 100 µM.

What about the TGI [34] of the same molecule?
Its TGI is greater than 100 µM.

And the TGI [35]?
The TGI was greater than 100 µM.

And the TGI [36]?
The TGI was greater than 100 µM.

And the TGI [37]?
The TGI was greater than 100 µM.

What about the TGI [38] of the same molecule?
Its TGI is greater than 100 µM.

And the TGI [39]?
Its TGI is greater than 100 µM.

And the TGI [40]?
The TGI was greater than 100 µM.

What about the TGI [41] of the same molecule?
The TGI was greater than 100 µM.

What about the TGI [42] of the same molecule?
Its TGI is greater than 100 µM.

What about the TGI [43] of the same molecule?
The TGI was greater than 100 µM.

What about the TGI [44] of the same molecule?
The TGI was greater than 100 µM.

And the TGI [45]?
The TGI was greater than 100 µM.

And the TGI [46]?
Its TGI is greater than 100 µM.

What about the TGI [47] of the same molecule?
The TGI was greater than 100 µM.

What about the TGI [48] of the same molecule?
The TGI was greater than 100 µM.

And the TGI [49]?
Its TGI is greater than 70.6 µM.

What about the TGI [50] of the same molecule?
Its TGI is greater than 100 µM.

And the TGI [51]?
Its TGI is greater than 100 µM.

And the TGI [52]?
The TGI was greater than 100 µM.

What about the TGI [53] of the same molecule?
The TGI was greater than 100 µM.

And the TGI [54]?
Its TGI is greater than 100 µM.

What about the TGI [55] of the same molecule?
The TGI was greater than 100 µM.

What about the TGI [56] of the same molecule?
The TGI was greater than 100 µM.

What about the TGI [57] of the same molecule?
The TGI was greater than 100 µM.

What about the TGI [58] of the same molecule?
The TGI was greater than 100 µM.

For `CC(=O)O[C@H]1CC2C(C3CC[C@H](C(C)CCC(N)=O)[C@]31C)[C@H](OC(C)=O)C[C@@H]1CC3(CC[C@]21C)OOC1(CCC(C)CC1)OO3` (stereo not given in full), which TGI [1] is on record?
Its TGI is 4.56 µM and 3.12 µM.

And the TGI [2]?
The TGI was 9.72 µM.

And the TGI [3]?
Its TGI is 9.44 µM and 4.29 µM.

And the TGI [4]?
The TGI was 5.77 µM and 5.51 µM.

What about the TGI [5] of the same molecule?
The TGI was 4.46 µM.

What about the TGI [6] of the same molecule?
The TGI was 7.1 µM and 3.37 µM.

And the TGI [7]?
Its TGI is 8.01 µM and 3.28 µM.

What about the TGI [8] of the same molecule?
The TGI was 3.78 µM.

And the TGI [9]?
The TGI was 3.33 µM and 4.43 µM.

What about the TGI [10] of the same molecule?
Its TGI is 6.13 µM.

What about the TGI [11] of the same molecule?
The TGI was 6.25 µM and 3.56 µM.

What about the TGI [12] of the same molecule?
The TGI was 6.13 µM and 4.82 µM.

What about the TGI [13] of the same molecule?
Its TGI is 11.5 µM and 4.24 µM.

What about the GI50 [14] of the same molecule?
The GI50 was 1.54 µM and 0.491 µM.

What about the TGI [14] of the same molecule?
Its TGI is 3.07 µM and 1.84 µM.

And the TGI [15]?
The TGI was 4.19 µM and 4.21 µM.

What about the TGI [16] of the same molecule?
Its TGI is 3.28 µM.

And the TGI [17]?
The TGI was 9.95 µM and 4.07 µM.

And the TGI [19]?
Its TGI is 22.9 µM and 19.2 µM.

And the TGI [20]?
The TGI was 4.47 µM and 3.23 µM.

What about the GI50 [21] of the same molecule?
The GI50 was 1.85 µM.

And the TGI [21]?
The TGI was 3.99 µM.

What about the TGI [22] of the same molecule?
The TGI was 3.78 µM and 3.2 µM.

And the TGI [23]?
The TGI was 5.36 µM and 3.72 µM.

And the GI50 [24]?
Its GI50 is 1.98 µM.

And the TGI [24]?
Its TGI is 4.05 µM.

And the GI50 [25]?
The GI50 was 4.3 µM and 2.11 µM.

What about the TGI [25] of the same molecule?
Its TGI is 16.3 µM and 3.94 µM.

What about the TGI [26] of the same molecule?
Its TGI is 3.51 µM and 3.8 µM.

And the TGI [27]?
Its TGI is 11.6 µM and 3.22 µM.

What about the TGI [28] of the same molecule?
Its TGI is 4.91 µM.

And the TGI [29]?
The TGI was 4.69 µM and 3.41 µM.

And the TGI [59]?
Its TGI is 4.37 µM and 3.2 µM.

And the TGI [30]?
The TGI was 12.3 µM and 3.59 µM.

And the TGI [31]?
The TGI was 15.2 µM and 5.01 µM.

And the GI50 [32]?
The GI50 was 5.31 µM and 2.62 µM.

And the TGI [32]?
Its TGI is 19.4 µM and 5.72 µM.

What about the GI50 [33] of the same molecule?
The GI50 was 5.65 µM and 2.48 µM.

And the TGI [33]?
The TGI was 14.3 µM and 8.13 µM.

And the TGI [34]?
Its TGI is 7.01 µM.

And the TGI [35]?
Its TGI is 3.19 µM and 3.12 µM.

And the TGI [36]?
The TGI was 29.3 µM and 24.4 µM.

And the TGI [37]?
The TGI was 8.76 µM.

What about the GI50 [38] of the same molecule?
Its GI50 is 1.01 µM and 1.43 µM.

And the TGI [38]?
The TGI was 2.35 µM and 2.78 µM.

What about the TGI [39] of the same molecule?
Its TGI is 4.57 µM and 3.96 µM.

And the TGI [40]?
Its TGI is 5.29 µM and 3.45 µM.

And the TGI [41]?
Its TGI is 4.07 µM.

And the TGI [42]?
The TGI was 5.69 µM and 3.24 µM.

And the TGI [43]?
The TGI was 4.47 µM and 4.44 µM.

What about the TGI [44] of the same molecule?
The TGI was 4.94 µM.

What about the TGI [45] of the same molecule?
Its TGI is 8.64 µM and 3.76 µM.

What about the TGI [46] of the same molecule?
The TGI was 6.43 µM and 3.35 µM.

And the TGI [47]?
The TGI was 8.39 µM and 3.57 µM.

And the TGI [48]?
The TGI was 3.08 µM and 2.64 µM.

And the TGI [49]?
The TGI was 5.15 µM and 3.25 µM.

What about the TGI [50] of the same molecule?
Its TGI is 16.8 µM and 5 µM.

What about the TGI [51] of the same molecule?
The TGI was 3.6 µM and 2.94 µM.

And the GI50 [52]?
Its GI50 is 1.47 µM and 1.07 µM.

What about the TGI [52] of the same molecule?
Its TGI is 2.96 µM and 2.31 µM.

And the TGI [53]?
Its TGI is 4.89 µM and 3.43 µM.

And the TGI [54]?
Its TGI is 3.88 µM and 2.93 µM.

What about the GI50 [55] of the same molecule?
Its GI50 is 1.82 µM.

What about the TGI [55] of the same molecule?
The TGI was 3.26 µM.

What about the TGI [56] of the same molecule?
The TGI was 4.86 µM and 3.66 µM.

What about the TGI [57] of the same molecule?
The TGI was 6.2 µM and 3.15 µM.

And the TGI [58]?
Its TGI is 3.52 µM and 3.02 µM.
